Measured values: US8759343B2 (priority 2007, dated 2014)

Tests used:
[1] = target: nicotinic receptors comprising the α7 subunit (Rattus norvegicus, UniProt Q05941); assay: biochemical; type: binding
Sequence of nicotinic receptors comprising the α7 subunit (Q05941 23-502): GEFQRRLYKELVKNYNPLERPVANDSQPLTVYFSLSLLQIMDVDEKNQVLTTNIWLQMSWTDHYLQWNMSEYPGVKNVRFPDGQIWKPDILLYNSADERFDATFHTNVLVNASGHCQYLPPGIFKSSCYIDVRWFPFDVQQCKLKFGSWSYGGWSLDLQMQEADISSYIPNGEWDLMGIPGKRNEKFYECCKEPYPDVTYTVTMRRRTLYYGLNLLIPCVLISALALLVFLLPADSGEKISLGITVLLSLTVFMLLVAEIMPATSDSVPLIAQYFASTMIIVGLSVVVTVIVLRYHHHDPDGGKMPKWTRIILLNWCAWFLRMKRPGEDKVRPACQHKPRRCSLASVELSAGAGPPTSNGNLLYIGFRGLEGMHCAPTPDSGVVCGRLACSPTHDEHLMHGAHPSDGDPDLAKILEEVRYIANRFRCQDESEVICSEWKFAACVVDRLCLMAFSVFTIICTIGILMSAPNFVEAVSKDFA

| Compound | IC50 [1] [nM] | melting point [°C] |
| --- | --- | --- |
| c1cnc2ccc(-c3ccc(C45CCN(CC4)C5)cn3)cc2c1 [Compound 12, 6-[5-(1-azabicyclo[2.2.1]hept-4-yl)pyridin-2-yl]quinoline] | 37.1 |  |
| c1cc(-c2ccc(C34CCN(CC3)C4)cn2)cc(-n2cccn2)c1 [Compound 113, 4-[6-(3-(pyrazol-1-yl)phenyl)pyridin-3-yl]-1-azabicyclo[2.2.1]heptane] | 4.7 | 114 to 116 |
| c1cc2c(cc1-c1ccc(C34CCN(CC3)C4)cn1)OCO2 [Compound 16, 4-[6-(1,3-benzodioxol-5-yl)pyridin-3-yl]-1-azabicyclo[2.2.1]heptane] | 9.1 | 256 to 258 |
| Fc1cccc(-c2ccc(C34CCN(CC3)C4)cn2)c1 [Compound 19, 4-[6-(3-fluorophenyl)pyridin-3-yl]-1-azabicyclo[2.2.1]heptane] | 13.8 | 88 to 90 |
